According to paper PMC5855801, “Benzothiophenone Derivatives Targeting Mutant Forms of Estrogen Receptor-α in Hormone-Resistant Breast Cancers” (International Journal of Molecular Sciences, 2018):

How the values were obtained:
[1] = biological target: T1, progesterone receptor (PR) (Homo sapiens, UniProt P06401); experiment: Luciferase reporter selectivity assay in PC3 cells, PR; assay type: cell-based; conditions: 24 h
T1 construct: expressed in transfected cells; host or cells: PC3
T1 sequence (P06401 1-933): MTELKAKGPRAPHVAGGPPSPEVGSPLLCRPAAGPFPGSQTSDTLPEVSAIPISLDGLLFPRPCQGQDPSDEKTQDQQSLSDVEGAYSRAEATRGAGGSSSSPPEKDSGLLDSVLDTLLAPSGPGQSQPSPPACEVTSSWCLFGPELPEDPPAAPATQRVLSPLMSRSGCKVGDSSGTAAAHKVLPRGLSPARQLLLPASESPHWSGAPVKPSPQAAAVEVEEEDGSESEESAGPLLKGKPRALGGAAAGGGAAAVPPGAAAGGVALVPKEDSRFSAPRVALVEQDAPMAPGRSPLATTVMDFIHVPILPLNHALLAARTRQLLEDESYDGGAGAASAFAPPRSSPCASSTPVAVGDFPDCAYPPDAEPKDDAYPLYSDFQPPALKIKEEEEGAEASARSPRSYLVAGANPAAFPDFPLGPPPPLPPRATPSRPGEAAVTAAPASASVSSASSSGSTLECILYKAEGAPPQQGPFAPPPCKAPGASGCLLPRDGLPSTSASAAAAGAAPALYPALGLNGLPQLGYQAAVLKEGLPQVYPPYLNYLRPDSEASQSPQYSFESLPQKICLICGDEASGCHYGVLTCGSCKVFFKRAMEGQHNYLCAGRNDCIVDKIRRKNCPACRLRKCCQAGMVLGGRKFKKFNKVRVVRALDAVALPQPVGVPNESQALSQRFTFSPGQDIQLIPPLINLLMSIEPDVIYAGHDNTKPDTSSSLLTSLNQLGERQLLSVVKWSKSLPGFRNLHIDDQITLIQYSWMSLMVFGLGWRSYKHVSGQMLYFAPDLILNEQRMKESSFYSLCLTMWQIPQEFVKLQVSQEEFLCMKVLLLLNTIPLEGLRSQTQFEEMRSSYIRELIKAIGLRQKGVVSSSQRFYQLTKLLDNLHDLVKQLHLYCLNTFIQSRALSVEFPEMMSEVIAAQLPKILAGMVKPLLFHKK
Description: (§1) Figure 4 Further activity profile of VPC-16606. (A,B) Chromatin immunoprecipitation (ChIP) analysis of ERα binding to the pS2 enhancer, or the GAPDH promoter, in MCF7 cells. Where indicated, ERα was stimulated with 1 nM E2 or dimethyl sulfoxide (DMSO) alone, and the compound was administered at a 6 μM concentration. Sheared chromatin-protein complexes were precipitated with the ERα antibody, reverse cross-linked and analyzed by quantitative PCR. The results are normalized as fold enrichment over precipitation with a rabbit isotype control IgG antibody for each condition tested. Error bars indicate standard error of the mean (SEM) for 3 independent experiments performed in triplicates. Fold enrichment from the compound tested condition (ERα antibody) was statistically compared against DMSO + E2 with a two-tailed t-test (unpaired) *** indicates p-value <0.001. (C) Specificity of VPC-16606 was evaluated in the luciferase reporter assay. PC3 cells were transfected with plasmids expressing androgen receptor (AR), progesterone receptor (PR) or glucocorticoid receptor (GR) along with their responsive luciferase reporter constructs bearing androgen response element (ARE), progesterone response element (PRE) or glucocorticoid response element (GRE), respectively. […] Y-axis represents relative luminescence (RLU) after normalizing to constitutive renilla reporter. […]

androgen receptor (AR) = biological target: T2, androgen receptor (AR) (Homo sapiens, UniProt P10275); experiment: Luciferase reporter selectivity assay in PC3 cells, AR; assay type: cell-based; conditions: 24 h
T2 construct: expressed in transfected cells; host or cells: PC3
T2 sequence (P10275 1-920): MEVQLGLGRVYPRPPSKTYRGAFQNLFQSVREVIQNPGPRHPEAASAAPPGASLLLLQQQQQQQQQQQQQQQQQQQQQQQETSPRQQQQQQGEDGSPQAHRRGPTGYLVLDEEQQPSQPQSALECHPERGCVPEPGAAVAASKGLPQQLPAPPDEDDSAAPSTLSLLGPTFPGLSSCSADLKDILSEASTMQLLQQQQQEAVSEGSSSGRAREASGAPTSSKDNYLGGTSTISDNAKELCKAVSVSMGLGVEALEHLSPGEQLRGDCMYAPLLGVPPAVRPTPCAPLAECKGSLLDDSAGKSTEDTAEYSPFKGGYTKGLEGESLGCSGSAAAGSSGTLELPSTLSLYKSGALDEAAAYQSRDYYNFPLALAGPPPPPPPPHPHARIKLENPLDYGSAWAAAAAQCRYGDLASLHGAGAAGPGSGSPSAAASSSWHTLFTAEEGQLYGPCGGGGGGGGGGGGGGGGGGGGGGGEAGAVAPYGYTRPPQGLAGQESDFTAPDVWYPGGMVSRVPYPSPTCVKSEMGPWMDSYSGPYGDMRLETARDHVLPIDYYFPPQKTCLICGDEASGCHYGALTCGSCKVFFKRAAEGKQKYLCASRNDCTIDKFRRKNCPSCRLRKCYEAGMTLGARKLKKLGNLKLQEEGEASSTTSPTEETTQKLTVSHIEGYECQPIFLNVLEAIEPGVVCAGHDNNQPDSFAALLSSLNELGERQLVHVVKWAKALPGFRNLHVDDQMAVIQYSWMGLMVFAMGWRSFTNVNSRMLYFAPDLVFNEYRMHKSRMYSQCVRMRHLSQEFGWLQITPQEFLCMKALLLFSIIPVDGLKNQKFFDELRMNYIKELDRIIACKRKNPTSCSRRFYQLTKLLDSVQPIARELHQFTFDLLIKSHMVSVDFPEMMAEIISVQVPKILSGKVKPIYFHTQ
Description: as §1

CC(=O)N(/N=C1\Sc2c(C)cccc2C1=O)c1ccccc1Cl [VPC-16606]
Effect on PR activity (luciferase) ([1]; 50 µM): some effect
Effect on PR activity (luciferase) ([1]; doses up to 25 µM): does not affect the activity
Effect on AR activity (luciferase) (androgen receptor (AR); 50 µM): some effect
Effect on AR activity (luciferase) (androgen receptor (AR); doses up to 25 µM): does not affect the activity
